Reference: patent publication US5393743A, “Erythromycin derivatives” (Abbott Laboratories, priority 1993, dated 1995)
Converted amounts (≈) assume the structure as drawn. Read-outs that look alike come from different tables or passages of the source.

How the values were obtained:
Escherichia coli SS = assay: microbe, parasite or virus in culture; conditions: Escherichia coli
Method: (§1) Representative compounds of the present invention were assayed in vitro for antibacterial activity as follows: Twelve petri dishes containing successive aqueous dilutions of the test compound mixed with 10 mL of sterilized Brain Heart Infusion (BHI) agar (Difco 0418-01-5) were prepared. Each plate was inoculated with 1:100 (or 1:10 for slow-growing strains, such as Micrococcus and Streptococcus) dilutions of up to 32 different microorganisms, using a Steers replicator block. The inoculated plates were incubated 35°-37° C. for 20 to 24 hours. In addition, a control plate, using BHI agar containing no test compound, was prepared and incubated at the beginning and end of each test.
(§2) An additional plate containing a compound having known susceptibility patterns for the organisms being tested and belonging to the same antibiotic class as the test compound was also prepared and incubated as a further control, as well as to provide test-to-test comparability. Erythromycin A was used for this purpose.
(§3) After incubation, each disk was read. The minimum inhibitory concentration (MIC) was defined as the lowest concentration of drug yielding no growth, a slight haze, or sparsely isolated colonies on the inoculum spot as compared to the growth control.

[1] = system: Micrococcus luteus ATCC 9341; assay: microbe, parasite or virus in culture; conditions: Micrococcus luteus, ATCC9341
Method: as §1, §2, §3

[2] = system: Pseudomonas aeruginosa K799/61; assay: In vitro antibacterial activity, agar dilution MIC; format: cell-based; conditions: BHI agar, 35°-37° C., 20 to 24 hours, read-out: MIC
[3] = system: Staphylococcus aureus A5177; assay: In vitro antibacterial activity, agar dilution MIC; format: cell-based
Method: as §1, §2, §3

[4] = system: Streptococcus pyogenes EES61; assay: In vitro antibacterial activity, agar dilution MIC; format: cell-based
Method: as §1, §2, §3

Escherichia coli DC-2 = assay: In vitro antibacterial activity, agar dilution MIC; format: cell-based; conditions: DC2
Method: as §1, §2, §3

Escherichia coli Juhl = assay: In vitro antibacterial activity, agar dilution MIC; format: cell-based
Method: as §1, §2, §3

Escherichia coli H560 = assay: In vitro antibacterial activity, agar dilution MIC; format: cell-based
Method: as §1, §2, §3

[5] = system: Enterococcus faecium ATCC 8043; assay: In vitro antibacterial activity, agar dilution MIC; format: cell-based; conditions: ATCC8043
Method: as §1, §2, §3

[6] = system: Streptococcus pyogenes 2548 induc; assay: In vitro antibacterial activity, agar dilution MIC; format: cell-based
Method: as §1, §2, §3

[7] = system: Klebsiella pneumoniae ATCC 8045; assay: In vitro antibacterial activity, agar dilution MIC; format: cell-based; conditions: ATCC8045
Method: as §1, §2, §3

[8] = system: Acinetobacter calcoaceticus CMX 669; assay: In vitro antibacterial activity, agar dilution MIC; format: cell-based; conditions: Acinetobacter calcoaceticus, CMX669
Method: as §1, §2, §3

[9] = system: Providencia stuartii CMX 640; assay: In vitro antibacterial activity, agar dilution MIC; format: cell-based; conditions: CMX640
Method: as §1, §2, §3

[10] = system: Pseudomonas aeruginosa BMH10; assay: In vitro antibacterial activity, agar dilution MIC; format: cell-based
Method: as §1, §2, §3

[11] = system: Staphylococcus aureus NCTC 10649; assay: In vitro antibacterial activity, agar dilution MIC; format: cell-based; conditions: NCTC10649
Method: as §1, §2, §3

[12] = system: Pseudomonas aeruginosa A5007; assay: In vitro antibacterial activity, agar dilution MIC; format: cell-based
Method: as §1, §2, §3

[13] = system: Staphylococcus aureus A5278; assay: In vitro antibacterial activity, agar dilution MIC; format: cell-based; conditions: Staphylococcus aureus, A5278
Method: as §1, §2, §3

[14] = system: Pseudomonas aeruginosa 5263; assay: In vitro antibacterial activity, agar dilution MIC; format: cell-based
Method: as §1, §2, §3

[15] = system: Streptococcus pyogenes 930 const; assay: In vitro antibacterial activity, agar dilution MIC; format: cell-based
Method: as §1, §2, §3

Escherichia coli KNK 437 = assay: In vitro antibacterial activity, agar dilution MIC; format: cell-based; conditions: KNK437
Method: as §1, §2, §3

[16] = system: Streptococcus bovis A5169; assay: In vitro antibacterial activity, agar dilution MIC; format: cell-based; conditions: Streptococcus equinus, A5169
Method: as §1, §2, §3

[17] = system: Streptococcus agalactiae 508; assay: In vitro antibacterial activity, agar dilution MIC; format: cell-based
Method: as §1, §2, §3

[18] = system: Staphylococcus aureus CMX 642a; assay: In vitro antibacterial activity, agar dilution MIC; format: cell-based; conditions: CMX642A
Method: as §1, §2, §3

[19] = system: Pseudomonas aeruginosa K799/WT; assay: In vitro antibacterial activity, agar dilution MIC; format: cell-based
Method: as §1, §2, §3

[20] = system: Pseudomonas aeruginosa 2862; assay: In vitro antibacterial activity, agar dilution MIC; format: cell-based
Method: as §1, §2, §3

[21] = system: Staphylococcus aureus 1775 Cipro R; assay: In vitro antibacterial activity, agar dilution MIC; format: cell-based; conditions: Staphylococcus aureus, 1775CIPROR
Method: as §1, §2, §3

Micrococcus luteus 4698 = assay: In vitro antibacterial activity, agar dilution MIC; format: cell-based
Method: as §1, §2, §3

[22] = system: Enterobacter aerogenes ATCC 13048; assay: In vitro antibacterial activity, agar dilution MIC; format: cell-based; conditions: Klebsiella aerogenes, ATCC13048
Method: as §1, §2, §3

[23] = system: Staphylococcus aureus CMX 553; assay: In vitro antibacterial activity, agar dilution MIC; format: cell-based; conditions: CMX553
Method: as §1, §2, §3

[24] = system: Staphylococcus aureus ATCC 6538P; assay: In vitro antibacterial activity, agar dilution MIC; format: cell-based; conditions: ATCC6538P
Method: as §1, §2, §3

Pseudomonas cepacia 2961 = assay: In vitro antibacterial activity, agar dilution MIC; format: cell-based; conditions: Burkholderia cepacia
Method: as §1, §2, §3

[25] = system: Staphylococcus epidermidis 3519; assay: In vitro antibacterial activity, agar dilution MIC; format: cell-based
Method: as §1, §2, §3

## CC[C@H]1OC(=O)[C@H](C)[C@@H](O[C@H]2C[C@@](C)(OC)[C@@H](O)[C@H](C)O2)[C@H](C)[C@@H](O[C@@H]2O[C@H](C)C[C@H](N(C)C)[C@H]2O)[C@](C)(O)C[C@@H](C)C(=O)[C@H](C)[C@@H](O)[C@]1(C)O [CONTROL, Erythromycin A, reference compound]
Escherichia coli SS
  MIC: 0.39 µg/mL (≈ 0.531 µM)
[1]
  MIC: 0.05 µg/mL (≈ 0.0681 µM)
[2]
  MIC: 3.1 µg/mL (≈ 4.22 µM)
[3]; Staphylococcus aureus, A5177
  MIC: 1.56 µg/mL (≈ 2.13 µM)
[4]; Streptococcus pyogenes, EES61
  MIC: 0.05 µg/mL (≈ 0.0681 µM)
Escherichia coli DC-2; Escherichia coli
  MIC: 100 µg/mL (≈ 136 µM)
Escherichia coli Juhl; Escherichia coli
  MIC: 50 µg/mL (≈ 68.1 µM)
Escherichia coli H560; Escherichia coli, H560
  MIC: 50 µg/mL (≈ 68.1 µM)
[5]; Enterococcus faecium
  MIC: 0.1 µg/mL (≈ 0.136 µM)
[6]; Streptococcus pyogenes, 2548INDUC
  MIC: 6.2 µg/mL (≈ 8.45 µM)
[7]; Klebsiella pneumoniae
  MIC: 50 µg/mL (≈ 68.1 µM)
[8]
  MIC: 1.56 µg/mL (≈ 2.13 µM)
[9]; Providencia stuartii
  MIC: > 100 µg/mL
[10]; Pseudomonas aeruginosa, BMH10
  MIC: 100 µg/mL (≈ 136 µM)
[11]; Staphylococcus aureus
  MIC: 0.2 µg/mL (≈ 0.273 µM)
[12]; Pseudomonas aeruginosa, A5007
  MIC: > 100 µg/mL
[13]
  MIC: > 100 µg/mL
[14]; Pseudomonas aeruginosa, 5263
  MIC: > 100 µg/mL
[15]; Streptococcus pyogenes, 930CONST
  MIC: > 100 µg/mL
Escherichia coli KNK 437; Escherichia coli
  MIC: 50 µg/mL (≈ 68.1 µM)
[16]
  MIC: 0.05 µg/mL (≈ 0.0681 µM)
[17]; Streptococcus agalactiae, 508
  MIC: 0.05 µg/mL (≈ 0.0681 µM)
[18]; Staphylococcus aureus
  MIC: 0.2 µg/mL (≈ 0.273 µM)
[19]; Pseudomonas aeruginosa, K799/WT
  MIC: > 100 µg/mL
[20]; Pseudomonas aeruginosa, 2862
  MIC: > 100 µg/mL
[21]
  MIC: > 100 µg/mL
Micrococcus luteus 4698; Micrococcus luteus, 4698
  MIC: 0.39 µg/mL (≈ 0.531 µM)
[22]
  MIC: 100 µg/mL (≈ 136 µM)
[23]; Staphylococcus aureus
  MIC: 0.2 µg/mL (≈ 0.273 µM)
[24]; Staphylococcus aureus
  MIC: 0.2 µg/mL (≈ 0.273 µM)
Pseudomonas cepacia 2961; 2961
  MIC: > 100 µg/mL
[25]; Staphylococcus epidermidis, 3519
  MIC: 0.2 µg/mL (≈ 0.273 µM)

## CC[C@H]1OC(=O)[C@H](C)[C@@H](O[C@H]2C[C@](C)(F)[C@@H](OC)[C@H](C)O2)[C@H](C)[C@@H](O[C@@H]2O[C@H](C)C[C@H](N(C)C)[C@H]2O)[C@@]2(C)CC(C)=C(O2)[C@H](C)[C@H]2OC(=O)O[C@@]21C [Example 17, (3"S)-8,9-Anhydro-11-O,12-O-carbonyl-3"-fluoro-3"-desmethoxy-4"-O-methylerythromycin A-6,9-hemiketal]
Escherichia coli SS
  MIC: 3.1 µg/mL (≈ 4.17 µM)
[1]
  MIC: 0.1 µg/mL (≈ 0.134 µM)
[2]
  MIC: 50 µg/mL (≈ 67.2 µM)
[3]; Staphylococcus aureus A5177, BHI agar, 35°-37° C., 20 to 24 hours, read-out: MIC
  MIC: 12.5 µg/mL (≈ 16.8 µM)
[4]; Streptococcus pyogenes EES61, BHI agar, 35°-37° C., 20 to 24 hours, read-out: MIC
  MIC: 0.2 µg/mL (≈ 0.269 µM)
Escherichia coli DC-2; Escherichia coli DC-2, BHI agar, 35°-37° C., 20 to 24 hours, read-out: MIC
  MIC: > 100 µg/mL
Escherichia coli Juhl; Escherichia coli Juhl, BHI agar, 35°-37° C., 20 to 24 hours, read-out: MIC
  MIC: > 100 µg/mL
Escherichia coli H560; Escherichia coli H560, BHI agar, 35°-37° C., 20 to 24 hours, read-out: MIC
  MIC: > 100 µg/mL
[5]; Enterococcus faecium ATCC 8043, BHI agar, 35°-37° C., 20 to 24 hours, read-out: MIC
  MIC: 0.39 µg/mL (≈ 0.524 µM)
[6]; Streptococcus pyogenes 2548 induc, BHI agar, 35°-37° C., 20 to 24 hours, read-out: MIC
  MIC: 1.56 µg/mL (≈ 2.1 µM)
[7]; Klebsiella pneumoniae ATCC 8045, BHI agar, 35°-37° C., 20 to 24 hours, read-out: MIC
  MIC: > 100 µg/mL
[8]
  MIC: 25 µg/mL (≈ 33.6 µM)
[9]; Providencia stuartii CMX 640, BHI agar, 35°-37° C., 20 to 24 hours, read-out: MIC
  MIC: > 100 µg/mL
[10]; Pseudomonas aeruginosa BMH10, BHI agar, 35°-37° C., 20 to 24 hours, read-out: MIC
  MIC: > 100 µg/mL
[11]; Staphylococcus aureus NCTC 10649, BHI agar, 35°-37° C., 20 to 24 hours, read-out: MIC
  MIC: 1.56 µg/mL (≈ 2.1 µM)
[12]; Pseudomonas aeruginosa A5007, BHI agar, 35°-37° C., 20 to 24 hours, read-out: MIC
  MIC: > 100 µg/mL
[13]
  MIC: 25 µg/mL (≈ 33.6 µM)
[14]; Pseudomonas aeruginosa 5263, BHI agar, 35°-37° C., 20 to 24 hours, read-out: MIC
  MIC: > 100 µg/mL
[15]; Streptococcus pyogenes 930 const, BHI agar, 35°-37° C., 20 to 24 hours, read-out: MIC
  MIC: 12.5 µg/mL (≈ 16.8 µM)
Escherichia coli KNK 437; Escherichia coli KNK 437, BHI agar, 35°-37° C., 20 to 24 hours, read-out: MIC
  MIC: > 100 µg/mL
[16]
  MIC: 0.1 µg/mL (≈ 0.134 µM)
[17]; Streptococcus agalactiae 508, BHI agar, 35°-37° C., 20 to 24 hours, read-out: MIC
  MIC: 0.2 µg/mL (≈ 0.269 µM)
[18]; Staphylococcus aureus CMX 642a, BHI agar, 35°-37° C., 20 to 24 hours, read-out: MIC
  MIC: 1.56 µg/mL (≈ 2.1 µM)
[19]; Pseudomonas aeruginosa K799/WT, BHI agar, 35°-37° C., 20 to 24 hours, read-out: MIC
  MIC: > 100 µg/mL
[20]; Pseudomonas aeruginosa 2862, BHI agar, 35°-37° C., 20 to 24 hours, read-out: MIC
  MIC: > 100 µg/mL
[21]
  MIC: 25 µg/mL (≈ 33.6 µM)
Micrococcus luteus 4698; Micrococcus luteus 4698, BHI agar, 35°-37° C., 20 to 24 hours, read-out: MIC
  MIC: 1.56 µg/mL (≈ 2.1 µM)
[22]; Enterobacter aerogenes ATCC 13048, BHI agar, 35°-37° C., 20 to 24 hours, read-out: MIC
  MIC: > 100 µg/mL
[23]; Staphylococcus aureus CMX 553, BHI agar, 35°-37° C., 20 to 24 hours, read-out: MIC
  MIC: 1.56 µg/mL (≈ 2.1 µM)
[24]; Staphylococcus aureus ATCC 6538P, BHI agar, 35°-37° C., 20 to 24 hours, read-out: MIC
  MIC: 1.56 µg/mL (≈ 2.1 µM)
Pseudomonas cepacia 2961; Pseudomonas cepacia 2961, BHI agar, 35°-37° C., 20 to 24 hours, read-out: MIC
  MIC: > 100 µg/mL
[25]; Staphylococcus epidermidis 3519, BHI agar, 35°-37° C., 20 to 24 hours, read-out: MIC
  MIC: 1.56 µg/mL (≈ 2.1 µM)
